# According to patent US20100267561A1, “HERBICIDAL PYRIDAZINONE DERIVATIVES” (priority 2007, published 2010):
# Where two headings read alike, the source gives them in different places.
# Tests used:
# Experiment in all cases: Test B pre-/postemergence plant response
# Format in all cases: in vivo
# [1] = tested on: Russian thistle (Salsola iberica); settings: Preemergence
# Excerpt: (§1) Seeds of plant species selected from blackgrass (Alopecurus myosuroides), downy bromegrass (Bromus tectorum), green foxtail (Setaria viridis), Italian ryegrass (Lolium multiflorum), wheat (Triticum aestivum), wild oat (Avena fatua), catchweed bedstraw (Galium aparine), bermudagrass (Cynodon dactylon), surinam grass (Brachiaria decumbens), cocklebur (Xanthium strumarium), corn (Zea mays), large crabgrass (Digitaria sanguinalis), woolly cupgrass (Eriochloa villosa), giant foxtail (Setaria faberii), goosegrass (Eleusine indica), johnsongrass (Sorghum halepense), kochia (Kochia scoparia), lambsquarters (Chenopodium album), morningglory (Ipomoea coccinea), eastern black (E.B.) nightshade (Solanum ptycanthum), yellow nutsedge (Cyperus esculentus), pigweed (Amaranthus retroflexus), common ragweed (Ambrosia elation), Russian thistle (Salsola iberica), soybean (Glycine max), common (oilseed) sunflower (Helianthus annuus), and velvetleaf (Abutilon theophrasti) were planted and treated preemergence with test chemicals formulated in a non-phytotoxic solvent mixture which included a surfactant.
# (§2) At the same time, plants selected from these crop and weed species and also winter barley (Hordeum vulgare), canarygrass (Phalaris minor), chickweed (Stellaria media) and windgrass (Apera spica-venti) were treated with postemergence applications of some of the test chemicals formulated in the same manner. Plants ranged in height from 2 to 18 cm (1- to 4-leaf stage) for postemergence treatments.
# (§3) Plant species in the flooded paddy test consisted of rice (Oryza sativa), umbrella sedge (Cyperus difformis), ducksalad (Heteranthera limosa) and barnyardgrass (Echinochloa crus-galli) grown to the 2-leaf stage for testing. At time of treatment, test pots were flooded to 3 cm above the soil surface, treated by application of test compounds directly to the paddy water, and then maintained at that water depth for the duration of the test. Treated plants and controls were maintained in a greenhouse for 13 to 15 days, after which time all species were compared to controls and visually evaluated. Plant response ratings, summarized in Table B, are based on a scale of 0 to 100 where 0 is no effect and 100 is complete control. A dash (-) response means no test result.
# [2] = tested on: surinam grass (Brachiaria decumbens); settings: for pest or weed control at 31 g/ha / pest or weed control at 62 g/ha: Urochloa decumbens, read-out: Plant response rating, Surinam Grass; for pest or weed control at 31 g/ha: 31 g ai/ha; for pest or weed control at 62 g/ha: 62 g ai/ha, 100 complete control
# Excerpt: as §1, §2, §3
# [3] = tested on: eastern black (E.B.) nightshade (Solanum ptycanthum); settings: Preemergence
# Excerpt: as §1, §2, §3
# [4] = tested on: common (oilseed) sunflower (Helianthus annuus); settings: Preemergence
# Excerpt: as §1, §2, §3
# [5] = tested on: goosegrass (Eleusine indica); settings: for pest or weed control at 31 g/ha / pest or weed control at 62 g/ha: Eleusine indica, read-out: Plant response rating, Goosegrass; for pest or weed control at 31 g/ha: 31 g ai/ha; for pest or weed control at 62 g/ha: 62 g ai/ha, 100 complete control
# Excerpt: as §1, §2, §3
# [6] = tested on: giant foxtail (Setaria faberii); settings: for pest or weed control at 31 g/ha: 31 g ai/ha; for pest or weed control at 62 g/ha: 62 g ai/ha, 100 complete control
# Excerpt: as §1, §2, §3
# [7] = tested on: wheat (Triticum aestivum); settings: for plant injury at 31 g/ha / plant injury at 62 g/ha: Triticum aestivum, read-out: Plant response rating, Wheat; for plant injury at 31 g/ha: 31 g ai/ha; for plant injury at 62 g/ha: 62 g ai/ha, 100 complete control
# Excerpt: as §1, §2, §3
# soybean (Glycine max) = settings: for plant injury at 31 g/ha / plant injury at 62 g/ha: Glycine max, read-out: Plant response rating, Soybean; for plant injury at 31 g/ha: 31 g ai/ha; for plant injury at 62 g/ha: 62 g ai/ha, 100 complete control
# Excerpt: as §1, §2, §3
# [8] = tested on: downy bromegrass (Bromus tectorum); settings: for pest or weed control at 31 g/ha: 31 g ai/ha; for pest or weed control at 62 g/ha: 62 g ai/ha, 100 complete control
# Excerpt: as §1, §2, §3
# [9] = tested on: morningglory (Ipomoea coccinea); settings: for pest or weed control at 31 g/ha / pest or weed control at 62 g/ha: Ipomoea, read-out: Plant response rating, Morningglory; for pest or weed control at 31 g/ha: 31 g ai/ha; for pest or weed control at 62 g/ha: 62 g ai/ha, 100 complete control
# Excerpt: as §1, §2, §3
# [10] = 8 g ai/ha, scale 0 to 100 (0 no effect, 100 complete control)
# [11] = 8 g ai/ha, postemergence, 0-100 scale
# [12] = 16 g ai/ha, postemergence, 0-100 scale
# [13] = Preemergence, 8 g ai/ha, scale 0 to 100 (0 no effect, 100 complete control)
# [14] = Preemergence, 16 g ai/ha, scale 0 to 100
# [15] = post-emergence, Postemergence, scale 0 to 100
# [16] = post-emergence, Postemergence, scale 0 to 100, 0 no effect
# [17] = pre-emergence, Preemergence, scale 0 to 100 (0 no effect, 100 complete control)
# [18] = pre-emergence, Preemergence, 0 to 100 scale, 0 no effect
compound,measurement,setting,value
"Cc1nn(C)c(=O)c(-c2nc(-c3ccc(Cl)cc3)sc2C)c1O [Compound 79, 4-[2-(4-chlorophenyl)-5-methyl-4-thiazolyl]-5-hydroxy-2,6-dimethyl-3(2H)-pyridazinone]",Russian Thistle plant response rating,[1]; [10],0
same,"Plant response rating, Russian Thistle","[1]; 31 g ai/ha, scale 0 to 100 (0 no effect, 100 complete control)",0
same,"Plant response rating, Russian Thistle","[1]; 62 g ai/ha, 0 to 100 scale, 0 no effect, 100 complete control",0
same,Russian Thistle plant response rating,"[1]; 16 g ai/ha, scale 0 to 100",0
same,Surinam Grass plant response rating,[2]; [11],65
same,Surinam Grass plant response rating,[2]; [12],70
same,Surinam Grass plant response rating,[2]; [13],75
same,Surinam Grass plant response rating,[2]; [14],85
same,pest or weed control at 31 g/ha,[2]; [15],75%
same,pest or weed control at 62 g/ha,[2]; [16],85%
same,pest or weed control at 31 g/ha,[2]; [17],100%
same,pest or weed control at 62 g/ha,[2]; [18],100%
same,"Nightshade, E. B. plant response rating",[3]; [10],0
same,"Nightshade, E. B. plant response rating","[3]; 16 g ai/ha, scale 0 to 100",0
same,pest or weed control at 62 g/ha,"[3]; Solanum, pre-emergence, 62 g ai/ha, 0 to 100 scale, 0 no effect, 100 complete control, read-out: Plant response rating, Nightshade, E. B.",0%
same,pest or weed control at 31 g/ha,"[4]; Helianthus annuus, pre-emergence, 31 g ai/ha, scale 0 to 100 (0 no effect, 100 complete control), read-out: Plant response rating, Sunflower",0%
same,pest or weed control at 62 g/ha,"[4]; Helianthus annuus, pre-emergence, 62 g ai/ha, 0 to 100 scale, 0 no effect, 100 complete control, read-out: Plant response rating, Sunflower",0%
same,Sunflower plant response rating,[4]; [10],0
same,Sunflower plant response rating,"[4]; 16 g ai/ha, scale 0 to 100",0
same,Goosegrass plant response rating,[5]; [11],60
same,Goosegrass plant response rating,[5]; [12],80
same,pest or weed control at 31 g/ha,[5]; [15],85%
same,pest or weed control at 62 g/ha,[5]; [16],90%
same,pest or weed control at 31 g/ha,[5]; [17],100%
same,pest or weed control at 62 g/ha,[5]; [18],100%
same,Goosegrass plant response rating,[5]; [13],98
same,Goosegrass plant response rating,[5]; [14],100
same,"Foxtail, Giant plant response rating",[6]; [11],75
same,"Foxtail, Giant plant response rating",[6]; [13],55
same,"Foxtail, Giant plant response rating",[6]; [14],100
same,pest or weed control at 16 g/ha,"[6]; Setaria faberi, post-emergence, Postemergence, 16 g ai/ha, scale 0 to 100, read-out: Plant response rating, Foxtail, Giant",80%
same,pest or weed control at 31 g/ha,"[6]; Setaria faberi, post-emergence, Postemergence, scale 0 to 100, read-out: Plant response rating, Foxtail, Giant",85%
same,pest or weed control at 62 g/ha,"[6]; Setaria faberi, post-emergence, Postemergence, scale 0 to 100, 0 no effect, read-out: Plant response rating, Foxtail, Giant",90%
same,pest or weed control at 31 g/ha,"[6]; Setaria faberi, pre-emergence, Preemergence, scale 0 to 100 (0 no effect, 100 complete control), read-out: Plant response rating, Foxtail, Giant",100%
same,pest or weed control at 62 g/ha,"[6]; Setaria faberi, pre-emergence, Preemergence, 0 to 100 scale, 0 no effect, read-out: Plant response rating, Foxtail, Giant",100%
same,Wheat plant response rating,[7]; [11],0
same,Wheat plant response rating,[7]; [12],20
same,Wheat plant response rating,[7]; [13],0
same,Wheat plant response rating,[7]; [14],0
same,plant injury at 31 g/ha,[7]; [15],60%
same,plant injury at 62 g/ha,[7]; [16],85%
same,plant injury at 31 g/ha,[7]; [17],0%
same,plant injury at 62 g/ha,[7]; [18],0%
same,Soybean plant response rating,soybean (Glycine max); [11],0
same,Soybean plant response rating,soybean (Glycine max); [12],0
same,plant injury at 31 g/ha,soybean (Glycine max); [15],15%
same,plant injury at 62 g/ha,soybean (Glycine max); [16],15%
same,plant injury at 31 g/ha,soybean (Glycine max); [17],98%
same,plant injury at 62 g/ha,soybean (Glycine max); [18],100%
same,Soybean plant response rating,soybean (Glycine max); [13],0
same,Soybean plant response rating,soybean (Glycine max); [14],0
same,"Bromegrass, Downy plant response rating",[8]; [11],0
same,pest or weed control at 16 g/ha,"[8]; Bromus tectorum, post-emergence, Postemergence, 16 g ai/ha, scale 0 to 100, read-out: Plant response rating, Bromegrass, Downy",0%
same,pest or weed control at 31 g/ha,"[8]; Bromus tectorum, post-emergence, Postemergence, scale 0 to 100, read-out: Plant response rating, Bromegrass, Downy",30%
same,pest or weed control at 62 g/ha,"[8]; Bromus tectorum, post-emergence, Postemergence, scale 0 to 100, 0 no effect, read-out: Plant response rating, Bromegrass, Downy",50%
same,pest or weed control at 31 g/ha,"[8]; Bromus tectorum, pre-emergence, Preemergence, scale 0 to 100 (0 no effect, 100 complete control), read-out: Plant response rating, Bromegrass, Downy",55%
same,pest or weed control at 62 g/ha,"[8]; Bromus tectorum, pre-emergence, Preemergence, 0 to 100 scale, 0 no effect, read-out: Plant response rating, Bromegrass, Downy",80%
same,"Bromegrass, Downy plant response rating",[8]; [13],0
same,"Bromegrass, Downy plant response rating",[8]; [14],0
same,Morningglory plant response rating,[9]; [11],0
same,Morningglory plant response rating,[9]; [12],0
same,pest or weed control at 31 g/ha,[9]; [15],0%
same,pest or weed control at 62 g/ha,[9]; [16],0%
same,pest or weed control at 31 g/ha,[9]; [17],0%
same,pest or weed control at 62 g/ha,[9]; [18],0%
same,Morningglory plant response rating,[9]; [13],0
same,Morningglory plant response rating,[9]; [14],0
